Assays:
[1] = biological target: farnesyl protein transferase (Homo sapiens, UniProt P49354+P49356); assay: FPT IC50 (inhibition of farnesyl protein transferase, in vitro enzyme assay); format: biochemical
Method: (§1) FPT IC50 (inhibition of farnesyl protein transferase, in vitro enzyme assay), COS Cell IC50 (Cell-Based Assay), GGPT IC50 (inhibition of geranylgeranyl protein transferase, in vitro enzyme assay), Cell Mat Assay, and anti-tumor activity (in vivo anti-tumor studies) are determined by the assay procedures described in WO 95/10516.

[2] = test system: COS Cell; assay: COS Cell IC50 (Cell-Based Assay)
Method: as §1

| Compound | IC50 [1] | IC50 [2] |
| --- | --- | --- |
| O=C1NC[C@@H](C(=O)N2CCC(CC(=O)N3CCC([C@H]4c5ncc(Br)cc5CCc5cc(Cl)cc(Br)c54)CC3)CC2)N1 [Example 4] | 1.8 nM | 33 nM |
| O=C1NCC(CC(=O)N2CCC(C3c4ncc(Br)cc4CCc4cc(Cl)cc(Br)c43)CC2)CO1 (centres unmarked) [Example 2, 4-(3,10-Dibromo-8-chloro-6,11-dihydro-5H-benzo[5,6]cyclohepta[1,2-b]pyridin-11-yl)-1-[(tetrahydro-2-oxo-2H-1,3-oxazin-5-yl)acetyl]piperidine] | 3.98 nM | 9 nM |
| O=C1NCC(CC(=O)N2CCC(C3c4ncc(Br)cc4CCc4cc(Cl)cc(Cl)c43)CC2)CO1 (centres unmarked) [Example 1, 4-(3-Bromo-8,10-dichloro-6,11-dihydro-5H-benzo[5,6]cyclohepta[1,2-b]pyridin-11-yl)-1-[(tetrahydro-2-oxo-2H-1 3-oxazin-5-yl)acetyl]piperidine] | 15 nM | 50 nM |
| O=C1N[C@H](C(=O)N2CCC(CC(=O)N3CCC([C@H]4c5ncc(Br)cc5CCc5cc(Cl)cc(Br)c54)CC3)CC2)CO1 [Example 3] | 2.3 nM | 7 nM |

Source: patent US5939416A, “Benzo (5,6) cycloheptapyridine compounds useful as farnesyl protein transferase inhibitors” (Schering Corporation, priority 1997, dated 1999)
